Data from patent US6737383B1, “Herbicidal oxadiazolidines” (priority 1999, dated 2004).

How the values were obtained:
bamyardgrass = assay: Test B flood test barnyardgrass; type: in vivo, Echinochloa crus-galli
Method in brief: (§1)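 Each value is a visual injury score relative to controls, with 10 meaning complete control and 0 no effect. Evaluation took place twelve to sixteen days after the 2-leaf-stage plants were treated and kept in the greenhouse.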

rape = assay: Test B pre/postemergence rape; type: in vivo, Brassica napus; settings: for Rape plant response rating: scale of 0 to 10 where 0 is no effect and 10 is complete control
Method in brief: (§2)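 Test chemicals in a non-phytotoxic solvent mixture with surfactant were sprayed preemergence onto planted seeds and postemergence onto plants 2 to 18 cm tall (1- to 4-leaf stage). After twelve to sixteen days in a greenhouse, injury was visually rated against untreated controls from 0 (no effect) to 10 (complete control).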

sugar beet = assay: Test B pre/postemergence sugar beet; type: in vivo, Beta vulgaris; settings: for Sugarbeets plant response rating: scale of 0 to 10 where 0 is no effect and 10 is complete control
Method in brief: as §2

blackgrass = assay: Test B pre/postemergence blackgrass; type: in vivo, Alopecurus myosuroides; settings: for Blackgrass plant response rating: scale of 0 to 10 where 0 is no effect and 10 is complete control
Method in brief: as §2

giant foxtail = assay: Test B pre/postemergence giant foxtail; type: in vivo, Setaria faberii; settings: for Giant foxtail plant response rating: scale of 0 to 10 where 0 is no effect and 10 is complete control
Method in brief: as §2

corn = assay: Test B pre/postemergence corn; type: in vivo, Zea mays; settings: for Corn plant response rating: scale of 0 to 10 where 0 is no effect and 10 is complete control
Method in brief: as §2

bedstraw = assay: Test B pre/postemergence bedstraw; type: in vivo, Galium aparine; settings: Rate 500 g/ha, scale of 0 to 10 where 0 is no effect and 10 is complete control
Method in brief: as §2

velvetleaf = assay: Test B pre/postemergence velvetleaf; type: in vivo, Abutilon theophrasti; settings: for Velvetleaf plant response rating: scale of 0 to 10 where 0 is no effect and 10 is complete control
Method in brief: as §2

soybean = assay: Test B pre/postemergence soybean; type: in vivo, Glycine max; settings: for Soybean plant response rating: scale of 0 to 10 where 0 is no effect and 10 is complete control
Method in brief: as §2

purple nutsedge = assay: Test B pre/postemergence purple nutsedge; type: in vivo, Cyperus rotundus; settings: for Nutsedge plant response rating: scale of 0 to 10 where 0 is no effect and 10 is complete control
Method in brief: as §2

morningglory = assay: Test B pre/postemergence morningglory; type: in vivo, Ipomoea hederacea; settings: for Morningglory plant response rating: scale of 0 to 10 where 0 is no effect and 10 is complete control
Method in brief: as §2

pigweed = assay: Test B pre/postemergence pigweed; type: in vivo, Amaranthus retroflexus; settings: for Redroot pigweed plant response rating: scale of 0 to 10 where 0 is no effect and 10 is complete control
Method in brief: as §2

smallflower flatsedge = assay: Test B flood test smallflower flatsedge; type: in vivo, Cyperus difformis
Method in brief: as §1

cocklebur = assay: Test B pre/postemergence cocklebur; type: in vivo, Xanthium strumarium; settings: for Cocklebur plant response rating: scale of 0 to 10 where 0 is no effect and 10 is complete control
Method in brief: as §2

surinam grass = assay: Test B pre/postemergence surinam grass; type: in vivo, Brachiaria decumbens; settings: for B. signalgrass plant response rating: scale of 0 to 10 where 0 is no effect and 10 is complete control
Method in brief: as §2

duck salad = assay: Test B flood test duck salad; type: in vivo, Heteranthera limosa
Method in brief: as §1

[1] = Rate 62 g/ha, flood test species, Pre-emergence, visual evaluation after twelve to sixteen days
[2] = Rate 125 g/ha, under heading Pre-emergence, flood test species, visual evaluation after twelve to sixteen days
[3] = Rate 250 g/ha, Pre-emergence, flood-test species, scale 0 to 10, 0 is no effect, 10 is complete control
[4] = Rate 500 g/ha, Pre-emergence, flood test species, scale 0 to 10 (0 no effect, 10 complete control)
[5] = Postemergence, Rate 125 g/ha, scale 0 to 10, 0 is no effect, 10 is complete control
[6] = Preemergence, Rate 62 g/ha, scale 0 to 10 (0 no effect, 10 complete control)
[7] = Postemergence, Rate 250 g/ha, scale 0 to 10, 0 is no effect, 10 is complete control

## CC(C)N(C(=O)n1oc(=O)n(CCC#N)c1=O)c1ccc(F)cc1 [Compound 388]
bamyardgrass; [1]
  Plant response rating, Barnyardgrass (0 to 10 scale, 0 is no effect, 10 is complete control): 0
bamyardgrass; [2]
  Barnyardgrass plant response rating (0 to 10 scale, 0 is no effect, 10 is complete control): 0
bamyardgrass; [3]
  Barnyardgrass plant response rating: 0
bamyardgrass; [4]
  Barnyardgrass plant response rating: 0
rape; [5]
  Plant response rating, Rape: 0
rape; Postemergence, Rate 500 g/ha
  Rape plant response rating: 0
rape; [6]
  Plant response rating, Rape: 0
rape; Preemergence, Rate 125 g/ha
  Rape plant response rating (0 to 10 scale): 0
rape; Preemergence, Rate 250 g/ha
  Rape plant response rating: 2
rape; Preemergence, Rate 500 g/ha
  Rape plant response rating: 8
rape; Rate 62 g/ha, Postemergence
  Rape plant response rating: 0
Sugar beet; [5]
  Plant response rating, Sugarbeets: 0
Sugar beet; [7]
  Plant response rating, Sugarbeets: 0
Sugar beet; Postemergence, Rate 500 g/ha
  Sugarbeets plant response rating: 4
Sugar beet; [6]
  Plant response rating, Sugarbeets: 0
Sugar beet; Preemergence, Rate 125 g/ha
  Sugarbeets plant response rating (0 to 10 scale): 2
Sugar beet; Preemergence, Rate 250 g/ha
  Sugarbeets plant response rating: 3
Sugar beet; Preemergence, Rate 500 g/ha
  Sugarbeets plant response rating: 6
Sugar beet; Rate 62 g/ha, Postemergence
  Sugarbeets plant response rating: 0
blackgrass; [5]
  Plant response rating, Blackgrass: 8
blackgrass; Postemergence, Rate 500 g/ha
  Blackgrass plant response rating: 10
blackgrass; [6]
  Plant response rating, Blackgrass: 0
blackgrass; Preemergence, Rate 125 g/ha
  Blackgrass plant response rating (0 to 10 scale): 1
blackgrass; Preemergence, Rate 250 g/ha
  Blackgrass plant response rating: 5
blackgrass; Preemergence, Rate 500 g/ha
  Blackgrass plant response rating: 6
Giant foxtail; [5]
  Plant response rating, Giant foxtail: 8
Giant foxtail; [7]
  Plant response rating, Giant foxtail: 8
Giant foxtail; Postemergence, Rate 500 g/ha
  Giant foxtail plant response rating: 9
Giant foxtail; [6]
  Plant response rating, Giant foxtail: 8
Giant foxtail; Preemergence, Rate 125 g/ha
  Giant foxtail plant response rating (0 to 10 scale): 8
Giant foxtail; Preemergence, Rate 250 g/ha
  Giant foxtail plant response rating: 10
Giant foxtail; Preemergence, Rate 500 g/ha
  Giant foxtail plant response rating: 10
Giant foxtail; Rate 62 g/ha, Postemergence
  Giant foxtail plant response rating: 7
corn; [5]
  Plant response rating, Corn: 0
corn; [7]
  Plant response rating, Corn: 0
corn; Postemergence, Rate 500 g/ha
  Corn plant response rating: 0
corn; [6]
  Plant response rating, Corn: 0
corn; Preemergence, Rate 125 g/ha
  Corn plant response rating (0 to 10 scale): 0
corn; Preemergence, Rate 500 g/ha
  Corn plant response rating: 9
corn; Rate 62 g/ha, Postemergence
  Corn plant response rating: 0
bedstraw; Postemergence
  Bedstraw plant response rating: 6
bedstraw; Preemergence
  Bedstraw plant response rating: 7
velvetleaf; [5]
  Plant response rating, Velvetleaf: 2
velvetleaf; [7]
  Plant response rating, Velvetleaf: 2
velvetleaf; Postemergence, Rate 500 g/ha
  Velvetleaf plant response rating: 6
velvetleaf; [6]
  Plant response rating, Velvetleaf: 0
velvetleaf; Preemergence, Rate 125 g/ha
  Velvetleaf plant response rating (0 to 10 scale): 2
velvetleaf; Preemergence, Rate 250 g/ha
  Velvetleaf plant response rating: 2
velvetleaf; Preemergence, Rate 500 g/ha
  Velvetleaf plant response rating: 6
velvetleaf; Rate 62 g/ha, Postemergence
  Velvetleaf plant response rating: 0
soybean; [5]
  Plant response rating, Soybean: 1
soybean; [7]
  Plant response rating, Soybean: 1
soybean; Postemergence, Rate 500 g/ha
  Soybean plant response rating: 1
soybean; [6]
  Plant response rating, Soybean: 0
soybean; Preemergence, Rate 125 g/ha
  Soybean plant response rating (0 to 10 scale): 0
soybean; Preemergence, Rate 250 g/ha
  Soybean plant response rating: 0
soybean; Preemergence, Rate 500 g/ha
  Soybean plant response rating: 4
soybean; Rate 62 g/ha, Postemergence
  Soybean plant response rating: 1
Purple nutsedge; [7]
  Plant response rating, Nutsedge: 5
Purple nutsedge; Postemergence, Rate 500 g/ha
  Nutsedge plant response rating: 6
Purple nutsedge; [6]
  Plant response rating, Nutsedge: 0
Purple nutsedge; Preemergence, Rate 125 g/ha
  Nutsedge plant response rating (0 to 10 scale): 0
Purple nutsedge; Preemergence, Rate 250 g/ha
  Nutsedge plant response rating: 0
morningglory; [5]
  Plant response rating, Morningglory: 3
morningglory; [7]
  Plant response rating, Morningglory: 4
morningglory; Postemergence, Rate 500 g/ha
  Morningglory plant response rating: 5
morningglory; [6]
  Plant response rating, Morningglory: 0
morningglory; Preemergence, Rate 125 g/ha
  Morningglory plant response rating (0 to 10 scale): 0
morningglory; Preemergence, Rate 250 g/ha
  Morningglory plant response rating: 0
morningglory; Preemergence, Rate 500 g/ha
  Morningglory plant response rating: 0
morningglory; Rate 62 g/ha, Postemergence
  Morningglory plant response rating: 1
pigweed; [5]
  Plant response rating, Redroot pigweed: 0
pigweed; [7]
  Plant response rating, Redroot pigweed: 0
pigweed; Postemergence, Rate 500 g/ha
  Redroot pigweed plant response rating: 3
pigweed; [6]
  Plant response rating, Redroot pigweed: 0
pigweed; Preemergence, Rate 125 g/ha
  Redroot pigweed plant response rating (0 to 10 scale): 0
pigweed; Preemergence, Rate 250 g/ha
  Redroot pigweed plant response rating: 6
pigweed; Preemergence, Rate 500 g/ha
  Redroot pigweed plant response rating: 10
pigweed; Rate 62 g/ha, Postemergence
  Redroot pigweed plant response rating: 0
Smallflower flatsedge; [1]
  Plant response rating, S. Flatsedge (0 to 10 scale, 0 is no effect, 10 is complete control): 0
Smallflower flatsedge; [2]
  S. Flatsedge plant response rating (0 to 10 scale, 0 is no effect, 10 is complete control): 0
Smallflower flatsedge; [3]
  S. Flatsedge plant response rating: 0
Smallflower flatsedge; [4]
  S. Flatsedge plant response rating: 0
cocklebur; [5]
  Plant response rating, Cocklebur: 0
cocklebur; [7]
  Plant response rating, Cocklebur: 0
cocklebur; Postemergence, Rate 500 g/ha
  Cocklebur plant response rating: 0
cocklebur; [6]
  Plant response rating, Cocklebur: 0
cocklebur; Preemergence, Rate 125 g/ha
  Cocklebur plant response rating (0 to 10 scale): 0
cocklebur; Preemergence, Rate 250 g/ha
  Cocklebur plant response rating: 0
cocklebur; Preemergence, Rate 500 g/ha
  Cocklebur plant response rating: 0
cocklebur; Rate 62 g/ha, Postemergence
  Cocklebur plant response rating: 0
Surinam grass; [5]
  Plant response rating, B. signalgrass: 6
Surinam grass; [7]
  Plant response rating, B. signalgrass: 8
Surinam grass; Postemergence, Rate 500 g/ha
  B. signalgrass plant response rating: 8
Surinam grass; [6]
  Plant response rating, B. signalgrass: 0
Surinam grass; Preemergence, Rate 125 g/ha
  B. signalgrass plant response rating (0 to 10 scale, 0 is no effect, 10 is complete control): 2
Surinam grass; Preemergence, Rate 250 g/ha
  B. signalgrass plant response rating: 3
Surinam grass; Preemergence, Rate 500 g/ha
  B. signalgrass plant response rating: 6
Surinam grass; Rate 62 g/ha, Postemergence
  B. signalgrass plant response rating: 1
Duck salad; [1]
  Plant response rating, Ducksalad (0 to 10 scale, 0 is no effect, 10 is complete control): 0
Duck salad; [2]
  Ducksalad plant response rating (0 to 10 scale, 0 is no effect, 10 is complete control): 0
Duck salad; [3]
  Ducksalad plant response rating: 0
Duck salad; [4]
  Ducksalad plant response rating: 0
